Experiments:
NET [1] = biological target: T1, NET (Rattus norvegicus, UniProt Q63380); assay: In vitro autoradiography with [11C]Me@HAPTHI, rat heart slices, competition; format: binding; details: for % BL-competitor: [11C]Me@HAPTHI binding, BL = baseline; for fmol (calculated relative concentration of transporter protein): limit of detection 0.01 fmol
T1 construct: Wild-type male rats were deeply anesthesized by isoflurane and sacrificed by decapitation; The organs of interest (i.e. brain, heart and testis) were removed; from tissue; host or cells: rat heart, 10 µm cryo-slices
T1 sequence (Q63380 1-617): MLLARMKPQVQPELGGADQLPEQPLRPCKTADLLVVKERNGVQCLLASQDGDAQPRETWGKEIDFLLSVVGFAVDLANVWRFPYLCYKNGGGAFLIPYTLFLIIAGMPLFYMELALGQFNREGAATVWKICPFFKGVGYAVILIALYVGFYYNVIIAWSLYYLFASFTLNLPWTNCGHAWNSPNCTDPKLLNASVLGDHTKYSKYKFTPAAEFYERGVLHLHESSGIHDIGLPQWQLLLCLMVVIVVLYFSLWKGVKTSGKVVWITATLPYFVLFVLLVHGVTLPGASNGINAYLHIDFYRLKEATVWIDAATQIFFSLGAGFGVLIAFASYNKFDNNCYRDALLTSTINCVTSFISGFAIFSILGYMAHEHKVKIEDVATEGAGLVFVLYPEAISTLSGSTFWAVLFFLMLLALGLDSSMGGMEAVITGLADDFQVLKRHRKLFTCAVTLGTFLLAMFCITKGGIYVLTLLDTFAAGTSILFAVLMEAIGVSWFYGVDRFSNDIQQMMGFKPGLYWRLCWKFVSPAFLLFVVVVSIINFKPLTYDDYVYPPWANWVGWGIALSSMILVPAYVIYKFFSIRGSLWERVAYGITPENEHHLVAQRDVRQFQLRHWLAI
Description: (§1) In vitro autoradiography was performed with slight modifications according to previously published protocols. Non-specific binding was determined by co-incubation with excess Nisoxetine (10 μM). […] After 1 h at room temperature, incubation was stopped and slices were processed on phosphor imaging films.
(§2) All data was exported to Microsoft Excel for statistical analysis, and the percentage of total specific binding was calculated.
(§3) A buffer for pre-incubation (50 mM TRIS HCl in aqua dest., pH 7.4) and a buffer for the experiment (50 mM TRIS HCl, pH 7.4, 300 mM NaCl, 5 mM KCl, 0.1%w/v ascorbic acid in aqua dest.) were prepared the day before the experiment and stored at 4 °C.
(§4) Tissue sections were allowed to thaw to RT upon thorough vanishing of condense water residues (5-10min). Subsequently, the slices were pre-incubated with the respective buffer at RT for 30 min in a Coplin jar. Slices were taken out of the jar and the buffer residues were removed.
(§5) Non-specific binding was determined by co-incubation with excess Nisoxetine (10 µM). […] To the naïve incubation solution (baseline), a vehicle containing acetonitrile was added in the same concentration as used for the dissolution of the competitors (i.e. 0.3% acetonitrile in the final incubation solution).
(§6) After 1 h the incubation was stopped and the slices were washed twice for 5 min in a jar with ice-cold incubation buffer. Finally, the tissue slides were washed with ice-cold water to remove all residual salts and dried under a smooth air stream. Subsequently, the dry tissue slices were placed on Phosphor-Imager films in a lead shielded cassette for an exposure time of 12 h. Following the analysis of the films with a Cyclone Phosphor Imager, regions of interest (ROI) were analyzed using OptiQuant® software. The signal obtained (digital light units/mm2=DLU/mm^2) was proportional to the radioactivity on the film. Using a calibration curve for each experiment, DLUs were converted into kBq/mm^2. Furthermore, for calculation of NET-density, kBq were converted into fmol by taking into account the specific activity of the radiotracer preparations. All data was exported to Microsoft Excel for statistical analysis and the percentage of total specific binding was calculated.

NET [2] = biological target: T2, NET (Homo sapiens, UniProt P23975); assay: In vitro autoradiography with [11C]Me@HAPTHI, human brain slices, competition; format: binding
T2 construct: The human postmortem tissue (7–9 h postmortem time, no history of neurological diseases) was obtained from the Neurobiobank; from tissue; host or cells: post-mortem human brain (cortex, thalamus, hippocampus, cerebellum, hypothalamus, nucleus caudatus), 10 µm cryo-slices
T2 sequence (P23975 whole entry): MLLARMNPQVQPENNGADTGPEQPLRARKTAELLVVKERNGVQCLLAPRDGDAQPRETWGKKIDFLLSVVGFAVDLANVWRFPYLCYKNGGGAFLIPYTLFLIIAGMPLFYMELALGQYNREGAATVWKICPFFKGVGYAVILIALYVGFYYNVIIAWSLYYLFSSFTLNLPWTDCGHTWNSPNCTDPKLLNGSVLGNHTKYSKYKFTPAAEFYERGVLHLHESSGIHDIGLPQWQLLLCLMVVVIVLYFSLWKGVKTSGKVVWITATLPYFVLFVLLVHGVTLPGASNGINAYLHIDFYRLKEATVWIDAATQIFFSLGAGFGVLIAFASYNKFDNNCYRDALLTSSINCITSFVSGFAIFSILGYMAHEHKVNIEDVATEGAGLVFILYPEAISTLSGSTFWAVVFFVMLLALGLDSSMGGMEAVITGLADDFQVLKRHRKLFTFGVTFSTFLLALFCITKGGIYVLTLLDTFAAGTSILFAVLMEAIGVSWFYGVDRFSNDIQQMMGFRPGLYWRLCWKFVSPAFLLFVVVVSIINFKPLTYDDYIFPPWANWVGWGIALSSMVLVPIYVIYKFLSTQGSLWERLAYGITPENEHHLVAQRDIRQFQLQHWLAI
Description: Human brain tissue (cortex, thalamus, hippocampus, cerebellum and hypothalamus) was obtained deeply frozen from the Neurobiobank of the Medical University Vienna and was stored at −80 °C. Before cutting, tissue blocks were thawed slowly within 12 h to −20 °C. The organs were cut at −20 °C in a micro-cryotome into 10-μm-thick slices and thaw mounted onto object slides. Slices were again stored at −80 °C until the beginning of the experiment.
as §1, §2
Human brain tissue (cortex, thalamus, hippocampus, cerebellum, and hypothalamus) was obtained deeply frozen from the Neuro-Biobank of the Medical University Vienna. Upon cutting, all tissue was stored at -80 °C. Before cutting, tissue blocks were thawed slowly within 12 h to -20 °C. The organs were cut at -20°C in a micro-cryotome into 10 µm thick slices and thaw mounted onto object slides. Until the beginning of the experiment, slices were stored at -80°C.
as §3, §4, §5, §6

NET [3] = biological target: T2, NET; assay: as above; format: binding; details: human nucleus caudatus
[4] = HPLC-based logD analysis (ODP-50 column); format: physicochemical; details: for chromatographic logD: HPLC on polymeric ODP-50 column, methanol/phosphate buffer, pH 7.4, HPLC method
Description: LogD values were assessed using a HPLC-based protocol according to Donovan and Pescatore. All compounds (as cold reference standards) were injected together with two known compounds—with known logD and k′ values—according to a standard protocol. A polymeric ODP-50 column was used; a linear gradient from 10 % MeOH 90 % 25 mM phosphate buffer (pH 7.4) to 100 % methanol within 9.4 min at a flow-rate of 1.5 mL/min was applied. Internal standards were triphenylene and toluene; detection was performed at 260 and 285 nm.

[5] = biological target: T3, hNET expressing membranes (Homo sapiens, UniProt P23975); assay: Harvesting experiments with [11C]Me@HAPTHI on hNET expressing membranes; format: binding; details: cold competitor 1-1000 nM, n ≥ 3 triplicates
T3 construct: purchased Perkin Elmer RBHNETM400AU
T3 sequence (P23975 whole entry): as above

human SERT membranes = biological target: T4, human SERT membranes (Homo sapiens, UniProt P31645); assay: SERT-expressing membrane binding (selectivity); details: n ≥ 5 triplicates, read-out: affinity towards SERT
T4 construct: purchased Perkin Elmer RBHSTM400UA
T4 sequence (P31645 whole entry): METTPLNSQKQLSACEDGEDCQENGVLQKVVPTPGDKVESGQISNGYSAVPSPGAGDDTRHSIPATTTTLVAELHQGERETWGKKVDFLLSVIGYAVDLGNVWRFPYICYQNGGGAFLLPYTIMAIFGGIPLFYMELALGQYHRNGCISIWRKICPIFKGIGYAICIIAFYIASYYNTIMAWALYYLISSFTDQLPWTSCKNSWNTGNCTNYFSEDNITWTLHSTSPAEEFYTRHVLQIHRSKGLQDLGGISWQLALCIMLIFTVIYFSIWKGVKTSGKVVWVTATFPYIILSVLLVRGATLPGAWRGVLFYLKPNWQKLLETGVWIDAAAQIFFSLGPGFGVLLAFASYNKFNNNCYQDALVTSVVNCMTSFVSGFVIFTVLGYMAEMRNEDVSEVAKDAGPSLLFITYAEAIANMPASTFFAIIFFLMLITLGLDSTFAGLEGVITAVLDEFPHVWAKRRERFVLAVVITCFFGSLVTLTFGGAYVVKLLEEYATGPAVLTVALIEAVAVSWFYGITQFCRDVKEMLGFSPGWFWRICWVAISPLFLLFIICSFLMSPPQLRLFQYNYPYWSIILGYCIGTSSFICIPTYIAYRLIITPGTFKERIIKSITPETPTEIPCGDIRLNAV
Description: (§7) IC50 and Ki values were obtained in analogy to NET experiments. Ratios DAT/NET and SERT/NET were determined.
as §7

human DAT membranes = biological target: T5, human DAT membranes (Homo sapiens, UniProt Q01959); assay: DAT-expressing membrane binding (selectivity); details: n ≥ 5 triplicates, read-out: affinity for DAT
T5 construct: purchased Perkin Elmer RBHDATM400UA
T5 sequence (Q01959 whole entry): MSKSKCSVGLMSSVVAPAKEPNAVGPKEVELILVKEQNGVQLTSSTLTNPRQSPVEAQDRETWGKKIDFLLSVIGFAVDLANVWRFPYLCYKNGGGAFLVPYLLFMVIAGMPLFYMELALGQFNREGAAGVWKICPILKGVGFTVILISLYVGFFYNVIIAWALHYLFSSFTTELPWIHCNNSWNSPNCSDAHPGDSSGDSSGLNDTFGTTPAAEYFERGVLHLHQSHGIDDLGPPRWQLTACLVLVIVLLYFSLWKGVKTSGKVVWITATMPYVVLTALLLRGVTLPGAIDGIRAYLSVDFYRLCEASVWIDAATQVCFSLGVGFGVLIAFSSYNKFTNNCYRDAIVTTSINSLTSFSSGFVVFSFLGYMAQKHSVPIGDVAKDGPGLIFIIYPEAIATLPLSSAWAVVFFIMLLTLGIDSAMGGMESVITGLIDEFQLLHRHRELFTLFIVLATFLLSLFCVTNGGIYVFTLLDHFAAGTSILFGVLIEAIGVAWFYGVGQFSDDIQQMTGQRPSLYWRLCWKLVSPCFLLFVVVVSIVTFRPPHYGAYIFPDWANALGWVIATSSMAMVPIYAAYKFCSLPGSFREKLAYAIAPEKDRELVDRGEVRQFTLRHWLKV
Description: as §7, §7

human NET membranes = biological target: T6, human NET membranes (Homo sapiens, UniProt P23975); assay: NET-expressing membrane competitive binding ([3H]nisoxetine); details: n ≥ 9 triplicates; cold reference compounds; read-out: Kd (affinity, human NET membranes)
T6 construct: purchased Perkin Elmer RBHNETM400AU
T6 sequence (P23975 whole entry): as the sequence (P23975 whole entry) above
Description: The affinity of new radiolabelled ligand was determined in a NET-expressing membrane binding protocol [26, 27].
Data from the competition plots (as arithmetic means of values derived from three different assays, each in triplicate for each compound) were analyzed and subsequently IC50 and Ki values were calculated using GraphPad Prism® software (San Diego, USA).
The affinity of new radiolabeled ligand was determined in a NET-expressing membrane binding protocol [3-5]. […] After incubation time, binding was quenched with ice cold buffer, and membrane bound radioactivity was recovered by rapid vacuum filtration through GF/C glass fiber filters (Whatman® Inc., Clifton, USA) presoaked in assay buffer containing 0.3% polyethylene imine (PEI). […] After addition of a β-scintillation cocktail (2 mL Ultima Gold^TM, biodegradeable, Perkin Elmer), the tubes were shaken for 20 min and then counted. Data from the competition plots (as arithmetic means of values derived from three different assays, each in triplicate for each compound) were analyzed and subsequently IC50 and Ki values were calculated using GraphPad Prism® software (San Diego, USA).

[6] = Plasma free fraction by ultrafiltration; format: in vitro ADME, human; details: binding to filter matrix of Centrifree vials, phosphate buffer pH 7.4
Description: For the determination of free fraction in human pooled plasma, an ultrafiltration protocol according to previously published methods was used. […] For a detailed method, see Additional file 1.
After incubation for 20 min at room temperature, the Centrifree vials were centrifuged for 50 minutes at 1800g. Subsequently, an aliquot of 50 µL of the ultrafiltrate was taken and measured in the γ-counter. The plasma free fraction was subsequently calculated as the ratio of the ultrafiltrate activity to the total plasma activity. […] The final free fraction value was corrected for this unspecific filter binding.

[7] = human cortex, competitor 100 nM
[8] = human hippocampus, competitor 100 nM
[9] = human hippocampus, competitor 1 μM
[10] = human hypothalamus, competitor 100 nM
[11] = human hypothalamus, competitor 1 μM
[12] = human thalamus, competitor 100 nM
[13] = human thalamus, competitor 1 μM

[2H]C([2H])(F)Oc1ccccc1OC(c1ccccc1)C1CNCCO1 (centres unmarked) [FMeNER-D2]
% BL-competitor (NET [1]; competitor 100 nM): 99.00 ± 0.07% | fmol (calculated relative concentration of transporter protein) (NET [1]; competitor 100 nM): <0.01 fmol/mm^2 | % BL-competitor (NET [1]; competitor 1 μM): 88.8 ± 11.2% | fmol (calculated relative concentration of transporter protein) (NET [1]; competitor 1 μM): <0.01 fmol/mm^2 | % BL-competitor (NET [2]; human cerebellum, competitor 100 nM): 103.9 ± 12.2% | % BL-competitor (NET [2]; human cerebellum, competitor 1 μM): 108.2 ± 17.3% | % BL-competitor (NET [2]; [7]): 86.3 ± 11.2 % | fmol (calculated relative concentration of transporter protein) (NET [2]; [7]): <0.01 fmol/mm^2 | % BL-competitor (NET [2]; human cortex, competitor 1 μM): 71.9 ± 7.9 % | fmol (calculated relative concentration of transporter protein) (NET [2]; human cortex, competitor 1 μM): 0.86 fmol/mm^2 | % BL-competitor (NET [2]; [8]): 97.1 ± 10.3% | fmol (calculated relative concentration of transporter protein) (NET [2]; [8]): <0.01 fmol/mm^2 | % BL-competitor (NET [2]; [9]): 67.3 ± 8.2% | fmol (calculated relative concentration of transporter protein) (NET [2]; [9]): <0.01 fmol/mm^2 | % BL-competitor (NET [2]; [10]): 97.8 ± 14.6% | fmol (calculated relative concentration of transporter protein) (NET [2]; [10]): 0.11 fmol/mm^2 | % BL-competitor (NET [2]; [11]): 77.4 ± 14.5% | fmol (calculated relative concentration of transporter protein) (NET [2]; [11]): 0.02 fmol/mm^2 | % BL-competitor (NET [2]; [12]): 77.6 ± 9.8% | fmol (calculated relative concentration of transporter protein) (NET [2]; [12]): 0.47 fmol/mm^2 | % BL-competitor (NET [2]; [13]): 68.36 ± 2.11% | fmol (calculated relative concentration of transporter protein) (NET [2]; [13]): 0.71 fmol/mm^2 | % BL-competitor (NET [3]; competitor 100 nM): 102.6 ± 14.5% | % BL-competitor (NET [3]; competitor 1 μM): 107.6 ± 17.7% | logD ([4]; HPLC method, phosphate buffer pH 7.4): 2.73 | displacement of [11C]Me@HAPTHI [5]: concentration-dependent displacement

NC[C@@H](O)CCN1c2ccccc2N(c2ccccc2)S1(=O)=O [HAPTHI, (S)-1-(4-amino-3-hydroxybutyl)-3-phenyl-1,3-dihydrobenzo[c][1,2, 5]thiadiazole 2,2-dioxide]
Kd (human SERT membranes): 10.3 µM | chromatographic logD [4]: 2.3 ± 0.01 | Kd (human DAT membranes): > 10 µM | Kd (human NET membranes): 0.0242 ± 0.0109 µM

[11CH3]NC[C@@H](O)CCN1c2ccccc2N(c2ccccc2)S1(=O)=O [[^11C]Me@HAPTHI, (S)-1-(3-hydroxy-4-([^11C]methylamino)butyl)-3-phenyl-1,3-dihydrobenzo[c][1,2, 5]thiadiazole 2,2-dioxide]
unspecific filter retention [6]: 51.26 ± 0.78%

CNC[C@@H](O)CCN1c2ccccc2N(c2ccccc2)S1(=O)=O [Me@HAPTHI, (S)-1-(3-hydroxy-4-(methylamino)butyl)-3-phenyl-1,3-dihydrobenzo[c][1,2, 5]thiadiazole 2,2-dioxide]
chromatographic logD [4]: 2.27 ± 0.01

From article PMC4467816 (EJNMMI Research, 2015)
